The text below walks through data of patent EP0063525A1, “Dibenzazepine tetracyclic derivatives, process for their preparation and pharmaceutical compositions containing them” (CENTRE NATIONAL DE LA RECHERCHE SCIENTIFIQUE (CNRS), priority 1981, dated 1982).

Data set [1] concerns Souris. As to the kind of experiment: antireserpine activity: reserpine hypothermia. It counts as in vivo. Particulars: réserpine 5 mg/kg i.p. 17 h before; for change in vivo at 50 mg/kg / change in vivo at 150 mg/kg: ip, 4 h, read-out: % d'augmentation par rapport aux témoins. The procedure: On note ensuite les températures témoins (réserpine), puis les températures 1, 2, 3 et 4 heures après l'administration des produits étudiés.
Les animaux sont répartis en lots de 4 animaux et reçoivent par voie intrapéritonéale la réserpine à une dose de 5 mg/kg. 17 heures après cette injection, on mesure la température corporelle de l'animal à l'aide d'une sonde thermocouple introduite dans le rectum; chaque lot reçoit ensuite la substance par voie intrapéritonéale. Le lot témoin reçoit la même quantité de solvant et par la même voie. La température corporelle est ensuite mesurée toutes les heures pendant 4 heures.
Les résultats sont rassemblés dans un tableau récapitulatif-où sont indiqués : • - la température moyenne pour chaque lot relevée 17 heures après l'injection de la réserpine, • - la moyenne des variations de température pour chaque lot relevées 1,2, 3 et 4 heures après l'injection de la substance étudiée, • - la somme des variations de températures pendant 4 heures, • - le pourcentage d'augmentation de la température pour chaque produit par rapport aux témoins.

Data set [2] relates to Souris. As to the kind of experiment: tetrabenazine hypothermia. The class given is in vivo. The following applies: product i.p. 80 mg/kg 30 min before tétrabénazine 32 mg/kg i.v. The protocol: (§1) Ce test permet de révéler également une activité antidépressive avec l'avantage d'une lecture plus rapide qu'avec la réserpine.
Les produits sont injectés 30 minutes avant l'administration de tétrabénazine.
Les températures sont relevées aux temps : 0, 30 minutes, 60 minutes, 90 minutes et 120 minutes.
(§2) Les souris sont réparties par lots de 5.
Les températures sont relevées avant l'injection de tétrabénazine, 30 minutes, 60 minutes, 90 minutes et 120 minutes après.
(§3) Le lot témoin comprend 20 souris.

A short description of data set [3]: acute toxicity in the mouse, intraperitoneal. It counts as in vivo, Souris. The following applies: mouse, in vivo, ip, voie intrapéritonéale; for LD50 at 48 h: souris femelles, read-out: DL 50; for mortality at 48 h: read-out: Mortalité %. The text has this:
(§4) Les produits ont été administrés par voie intrapéritonéale à des souris femelles dont le poids variait de 18 à 30 g.
(§5) Les animaux injectés ont été maintenus dans une salle thermostatée, nourris et abreuvés à volonté.
(§6) La mortalité a été relevée à 1 heure, 4 heures, 24 heures et 48 heures.

For a further data set, the system named is souris femelles. As to the kind of experiment: acute toxicity in the mouse, intraperitoneal. The following applies: voie intrapéritonéale, dead mice of the group. It counts as in vivo.
Description: as §4, §5, §6

Data set [4] relates to Souris. As to the kind of experiment: tetrabenazine ptosis. It counts as in vivo. Particulars: product i.p. 100 mg/kg 30 min before tétrabénazine 32 mg/kg i.v. The protocol: as §1, §2
Le ptosis est noté avant l'injection de tétrabénazine, 30 minutes, 60 minutes, 90 minutes et 120 minutes après.
On a adopté la notation suivante : • - 0 : pour un oeil ouvert, • - 1 : pour un oeil fermé au quart, • - 2 : pour un oeil fermé à moitié, • - 3 : pour un oeil fermé aux trois-quarts, • - 4 : pour un oeil fermé complètement.
as §3

Where two headings read alike, the source gives them in different places. Bounds are passed on as bounds.

Take `O=C(O)CCCCCCNC1c2ccccc2CCc2ccccc21` [Aminep-tine, amineptine, reference compound]: in the data set on Souris [1] (product i.p. 80 mg/kg), the “variation de température T=1h” value is “+1,5”, the “variation de température T= 2h” value was “+1,6”, the “variation de température T=3h” value is “+1” and the “variation de température T=4h” value is listed as “+0,1”. Further, the inhibition in vivo at 80 mg/kg with Souris [2] (ip, 2 h, hypothermie, read-out: % de protection) is 51%. In addition, in the data set on Souris [2], the “Température après tétrabénazine 30 minutes” value is listed as -1,8, the “Température après tétrabénazine 60 minutes” value is listed as -1,8, the “Température après tétrabénazine 90 minutes” value is -1,1 and the “Température après tétrabénazine 120 minutes” value is on record as -0,2. Further, the “Température après tétrabénazine Total” value with Souris [2] is on record as -4,2.

As for `c1ccc(-c2nn(-c3ccccc3)c3c2-c2ccccc2Nc2ccccc2-3)cc1` [compound 12, diphényl-1,3 dihydro-1,8 (dibenzo[b,f]pyrazolo[3,4-d]) azépine], the LD50 at 48 h in data set [3] was above 250 mg/kg. Besides, the mortality at 48 h in data set [3] (125 mg/kg) worked out at 0%. Besides, the mortality at 48 h in data set [3] (250 mg/kg) is 0%. Moreover, in the data set on souris femelles (125 mg/kg), the “Mortalité en 1 heure” value was 0 and the “Mortalité en 48 h.” value is listed as 0. Further, in the data set with souris femelles (250 mg/kg), the “Mortalité en 1 heure” value is reported as 0 and the “Mortalité en 48 h.” value amounted to 0. In the data set with Souris [1] (product i.p. 50 mg/kg), the change in vivo at 50 mg/kg is 10%, the “variation de température T= 2h” value is reported as “+0,4”, the “variation de température T=3h” value is “+0,3” and the “variation de température T=4h” value was “+0,4”.

Take `CN(C)CCCN1c2ccccc2-c2c(-c3ccccc3)nn(-c3ccccc3)c2-c2ccccc21` [compound 14, (γ-diméthylaminopropyl)-8-diphényl-1,3 dihydro-1,8 (dibenzo [b,f]pyrazolo [3,4-d])azépine]: the LD50 at 48 h in data set [3] stood at 200 mg/kg. Besides, the mortality at 48 h came out at 0% in data set [3] (50 mg/kg), 0% in data set [3] (100 mg/kg), 80% in data set [3] (250 mg/kg) and 100% in data set [3] (500 mg/kg). The “Mortalité en 1 heure” value in the data set on souris femelles (50 mg/kg) is reported as 0; in the data set on souris femelles (100 mg/kg), 0; in the data set on souris femelles (250 mg/kg), 2; with souris femelles (500 mg/kg), 3. The “Mortalité en 48 h.” value in the data set with souris femelles (50 mg/kg) was found to be 0; with souris femelles (100 mg/kg) it was 0; in the data set on souris femelles (250 mg/kg), 4; with souris femelles (500 mg/kg), 5. In the data set with Souris [1] (product i.p. 150 mg/kg), the change in vivo at 150 mg/kg amounted to 40%. In addition, in the data set on Souris [1] (product i.p. 150 mg/kg), the “variation de température T=1h” value is reported as “+1,5”. Further, the “variation de température T= 2h” value in the data set with Souris [1] (product i.p. 150 mg/kg) is “+0,6”. Also, the “variation de température T=3h” value with Souris [1] (product i.p. 150 mg/kg) is given as “+0,6”. Further, the “variation de température T=4h” value in the data set on Souris [1] (product i.p. 150 mg/kg) is “+0,1”.

Regarding `CN(C)CCN1c2ccccc2-c2onc(-c3ccccc3)c2-c2ccccc21` [compound 17, (β-diméthylaminoéthyl)-8 phényl-3 (dibenzo [b,f]isoxazolo [4,5-d]) 8H azépine], in data set [3], the LD50 at 48 h is 175 mg/kg. Further, the mortality at 48 h in data set [3] (50 mg/kg) came out at 0%; in data set [3] (100 mg/kg), 0%; in data set [3] (150 mg/kg), 0%; in data set [3] (200 mg/kg), 100%; in data set [3] (250 mg/kg) it was 100%. Further, the “Mortalité en 1 heure” value in the data set on souris femelles (50 mg/kg) came out at 0; in the data set with souris femelles (100 mg/kg), 0; in the data set with souris femelles (150 mg/kg), 0; in the data set on souris femelles (200 mg/kg) it was 5; in the data set on souris femelles (250 mg/kg), 4. In addition, the “Mortalité en 48 h.” value in the data set on souris femelles (50 mg/kg) turned out to be 0; in the data set with souris femelles (100 mg/kg) it was 0; in the data set on souris femelles (150 mg/kg), 0; in the data set with souris femelles (200 mg/kg), 5; in the data set with souris femelles (250 mg/kg), 5. The change in vivo at 50 mg/kg in the data set with Souris [1] (product i.p. 50 mg/kg) came to 0%. Further, the change in vivo at 150 mg/kg with Souris [1] (product i.p. 150 mg/kg) is 300%.

`CC(CN(C)C)CN1c2ccccc2-c2onc(-c3ccccc3)c2-c2ccccc21` (centres unmarked) [compound 19, (méthyl-2 diméthylamino-3 propyl)-8 phényl-,3 (dibenzo [b ,f]isoxazolo [3 ,4-d]) 8H azépine]: the LD50 at 48 h in data set [3] came to 175 mg/kg. In data set [3] (50 mg/kg), the mortality at 48 h stood at 0%. For the same compound, the mortality at 48 h in data set [3] (100 mg/kg) was determined as 0%. Further, in data set [3] (250 mg/kg), the mortality at 48 h came out at 60%. Also, the mortality at 48 h in data set [3] (500 mg/kg) was 100%. In addition, in the data set on souris femelles (50 mg/kg), the “Mortalité en 1 heure” value is 0 and the “Mortalité en 48 h.” value is reported as 0. Also, in the data set with souris femelles (100 mg/kg), the “Mortalité en 1 heure” value is reported as 0 and the “Mortalité en 48 h.” value turned out to be 0. Further, in the data set with souris femelles (250 mg/kg), the “Mortalité en 1 heure” value amounted to 1 and the “Mortalité en 48 h.” value is 3. Besides, in the data set on souris femelles (500 mg/kg), the “Mortalité en 1 heure” value was 5 and the “Mortalité en 48 h.” value is 5. Besides, in the data set on Souris [1] (product i.p. 150 mg/kg), the change in vivo at 150 mg/kg stood at 110%, the “variation de température T=1h” value is reported as “+3,4”, the “variation de température T= 2h” value is “+0,7” and the “variation de température T=3h” value is “+0,7”. Moreover, in the data set with Souris [1] (product i.p. 150 mg/kg), the “variation de température T=4h” value is recorded as -0,6. Also, the inhibition in vivo at 100 mg/kg in the data set on Souris [4] (ip, 2 h, ptosis, read-out: % de protection) was found to be 16%. For the same compound, in the data set with Souris [4], the “Ptosis Total” value is given as 25,3. In the data set with Souris [4] (score 0-4 per eye), the “Ptosis 30 minutes” value is 5, the “Ptosis 60 minutes” value was 6,3, the “Ptosis 90 minutes” value was 6,7 and the “Ptosis 120 minutes” value is on record as 7,3.

Turning to `CN(C)CCCN1c2ccccc2C=Cc2ccccc21` [compound 21, (α-diméthylaminopropyl)-5 dibenzo [b,f] 5H azépine, reference compound], in data set [3], the LD50 at 48 h turned out to be 100 mg/kg. The mortality at 48 h in data set [3] (50 mg/kg) amounted to 0%; in data set [3] (75 mg/kg), 0%; in data set [3] (125 mg/kg) it was 100%; in data set [3] (250 mg/kg), 100%. In addition, the “Mortalité en 1 heure” value in the data set on souris femelles (50 mg/kg) is 0; in the data set with souris femelles (75 mg/kg) it was 0; with souris femelles (125 mg/kg) it was 5; in the data set on souris femelles (250 mg/kg) it was 5. The “Mortalité en 48 h.” value came out at 0 with souris femelles (50 mg/kg), 0 in the data set with souris femelles (75 mg/kg), 5 with souris femelles (125 mg/kg) and 5 in the data set with souris femelles (250 mg/kg). The change in vivo at 50 mg/kg in the data set with Souris [1] (product i.p. 50 mg/kg) is 30%. For the same compound, the “variation de température T= 2h” value with Souris [1] (product i.p. 50 mg/kg) is -0,1. In the data set with Souris [1] (product i.p. 50 mg/kg), the “variation de température T=3h” value is on record as “+0,2”. Further, the “variation de température T=4h” value in the data set with Souris [1] (product i.p. 50 mg/kg) is reported as “+0,5”.
